# Laboratory results published in US9084770B2, “Modulation of insulin like growth factor I receptor expression in cancer” (Antisense Therapeutics, Ltd., priority 2008, dated 2015).
# Tested on: human IGF-IR mRNA
# Assay: Antisense inhibition of human IGF-IR mRNA levels by quantitative RT-PCR (Table 1)
# Format: cell-based
# Parameters: %INHIB (human IGF-IR mRNA levels): concentration or dose not given beside the values
# Conditions: quantitative RT-PCR; averages from 3 experiments
# Text: Treatment of A549 cell cultures with oligonucleotides targeting IGF-IR is as described in WO 2004/072284.
# Quantitation of IGF-IR mRNA levels was accomplished by RT-PCR using the ABI PRISM (trademark) 7600, 7700, or 7900 Sequence Detection System (PE-Applied Biosystems, Foster City, Calif.) according to manufacturer's instructions. This is a closed-tube, non-gel-based, fluorescence detection system which allows high-throughput quantitation of PCR products in real-time. As opposed to standard PCR in which amplification products are quantitated after the PCR is completed, products in real-time quantitative PCR are quantitated as they accumulate. This is accomplished by including in the PCR reaction an oligonucleotide probe that anneals specifically between the forward and reverse PCR primers, and contains two fluorescent dyes. A reporter dye (e.g., FAM or JOE, obtained from either PE-Applied Biosystems, Foster City, Calif., Operon Technologies Inc., Alameda, Calif. or Integrated DNA Technologies Inc., Coralville, Iowa) is attached to the 5′-end of the probe and a quencher dye (e.g., TAMRA, obtained from either PE-Applied Biosystems, Foster City, Calif., Operon Technologies Inc., Alameda, Calif. or Integrated DNA Technologies Inc., Coralville, Iowa) is attached to the 3′-end of the probe. When the probe and dyes are intact, reporter dye emission is quenched by the proximity of the 3′ quencher dye. During amplification, annealing of the probe to the target sequence creates a substrate that can be cleaved by the 5′-exonuclease activity of Taq polymerase. […] With each cycle, additional reporter dye molecules are cleaved from their respective probes, and the fluorescence intensity is monitored at regular intervals by laser optics built into the ABI PRISM (trademark) Sequence Detection System. In each assay, a series of parallel reactions containing serial dilutions of mRNA from untreated control samples generates a standard curve that is used to quantitate the percent inhibition after antisense oligonucleotide treatment of test samples.
# PCR reagents were obtained from Invitrogen Corporation, (Carlsbad, Calif.). RT-PCR reactions were carried out by adding 20 μL PCR cocktail (2.5×PCR buffer minus MgCl2, 6.6 mM MgCl2, 375 μM each of dATP, dCTP, […] and dGTP, 375 nM each of forward primer and reverse primer, 125 nM of probe, 4 Units RNAse inhibitor, 1.25 Units PLATINUM (registered trademark) Taq, 5 Units MuLV reverse transcriptase, and 2.5×ROX dye) to 96-well plates containing 30 μL total RNA solution (20-200 ng). The RT reaction was carried out by incubation for 30 minutes at 48° C. Following a 10 minute incubation at 95° C. to activate the PLATINUM (trademark) Taq, 40 cycles of a two-step PCR protocol were carried out: 95° C. for 15 seconds (denaturation) followed by 60° C. for 1.5 minutes (annealing/extension).
# Gene target quantities obtained by RT-PCR are normalized using either the expression level of GAPDH, a gene whose expression is constant, or by quantifying total RNA using RiboGreen (trademark) (Molecular Probes, Inc. Eugene, Oreg.). GAPDH expression is quantified by RT-PCR, by being run simultaneously with the target, multiplexing, or separately. Total RNA is quantified using RiboGreen (trademark) RNA quantification reagent (Molecular Probes, Inc. Eugene, Oreg.). Methods of RNA quantification by RiboGreen (trademark) are taught in Jones et al., 1998.
# Probes and primers to human IGF-IR were designed to hybridize to the IGF-IR nucleotide sequence, using published sequence information (GenBank accession number NM000875 (SEQ ID NO:76) or M69229 (SEQ ID NO:77) which is the 5′ untranslated of the IGF-IR gene sequence (see FIG. 6).
# In accordance with the present invention, a series of antisense compounds were designed to target different regions of the human IGF-IR mRNA or the 5′ untranslated region, using published sequences set forth in NM000875 (SEQ ID NO:77) and M69229 (SEQ ID NO:76). […]
row,Substance,%INHIB (human IGF-IR mRNA levels)
1,"323728 (antisense TCCCACAGTTGCTGCAAGTT; listed as DNA, chemistry not fully specified) [compound 323728]",73%
2,"323759 (antisense ATTTTGACTGTGAAATCTTC; listed as DNA, chemistry not fully specified) [compound 323759]",13%
3,"323757 (antisense CGGAGATAACTTTTGAGATC; listed as DNA, chemistry not fully specified) [compound 323757]",35%
4,"323760 (antisense GCGATCTCCCAGAGGACGAC; listed as DNA, chemistry not fully specified) [compound 323760]",72%
5,"175322 (antisense TCCGGGTCACAGGCGAGGCC; listed as DNA, chemistry not fully specified) [compound 175322]",67%
6,"323749 (antisense GCGCTGCAGCCCAGCTTCTC; listed as DNA, chemistry not fully specified) [compound 323749]",71%
7,"323709 (antisense CAATATCCTTGAGATTGGTC; listed as DNA, chemistry not fully specified) [compound 323709]",29%
8,"175318 (antisense GAAACGCGGAGTCAAAATGA; listed as DNA, chemistry not fully specified) [compound 175318]",68%
9,"323765 (antisense AAAAAGCTGCTTGCATATTG; listed as DNA, chemistry not fully specified) [compound 323765]",74%
10,"175320 (antisense CCAAATCCAGGACACACACA; listed as DNA, chemistry not fully specified) [compound 175320]",64%
11,"175301 (antisense AGCCCAAATCTGCCTAGGCG; listed as DNA, chemistry not fully specified) [compound 175301]",77%
12,"323763 (antisense ATCCAAGGATCAGCAGGTCG; listed as DNA, chemistry not fully specified) [compound 323763]",69%
13,"175298 (antisense GGAGTCAAAATGAATGAGCG; listed as DNA, chemistry not fully specified) [compound 175298]",74%
14,"175321 (antisense TCGGCCTCCATTTTCAAACC; listed as DNA, chemistry not fully specified) [compound 175321]",78%
15,"323745 (antisense AGCCTCGTGGTTGCAGCTGT; listed as DNA, chemistry not fully specified) [compound 323745]",75%
16,"175315 (antisense GCAGCGGCCCAGGGCTCGGC; listed as DNA, chemistry not fully specified) [compound 175315]",75%
17,"323734 (antisense TTGGTGCGAATGTACAAGAT; listed as DNA, chemistry not fully specified) [compound 323734]",61%
18,"175310 (antisense GCGGCGAGCTCCTTCCCAAA; listed as DNA, chemistry not fully specified) [compound 175310]",76%

row,Substance,%INHIB (human IGF-IR mRNA levels)
1,"323722 (antisense CGGTAGTTGTACTCATTGTT; listed as DNA, chemistry not fully specified) [compound 323722]",71%
2,"323731 (antisense GTCCAGGGCTTCAGCCCATG; listed as DNA, chemistry not fully specified) [compound 323731]",74%
3,"323704 (antisense CGGTAGTCCTCGGCCTTGGA; listed as DNA, chemistry not fully specified) [compound 323704]",71%
4,"323719 (antisense TGTTGATGGTGGTCTTCTCA; listed as DNA, chemistry not fully specified) [compound 323719]",66%
5,"175327 (antisense ACAAGTCTCAAACTCAGTCT; listed as DNA, chemistry not fully specified) [compound 175327]",61%
6,"323750 (antisense TTTAAAAAGATGGAGTTTTC; listed as DNA, chemistry not fully specified) [compound 323750]",8%
7,"323742 (antisense TCCTTGTTATCCACTCTGCT; listed as DNA, chemistry not fully specified) [compound 323742]",58%
8,"323708 (antisense TCCTTGAGATTGGTCATCTC; listed as DNA, chemistry not fully specified) [compound 323708]",41%
9,"323752 (antisense TCCTGTCTGGACACACATTC; listed as DNA, chemistry not fully specified) [compound 323752]",66%
10,"323753 (antisense AAGAACACAGGATCTGTCCA; listed as DNA, chemistry not fully specified) [compound 323753]",38%
11,"323700 (antisense CCCTCGATCACCGTGCAGTT; listed as DNA, chemistry not fully specified) [compound 323700]",56%
12,"323730 (antisense CCACCATGTTCCAGCTGTTG; listed as DNA, chemistry not fully specified) [compound 323730]",78%
13,"323761 (antisense TGTAGTAGAAGGAGACCTCC; listed as DNA, chemistry not fully specified) [compound 323761]",26%
14,"323768 (antisense GGAGTTTAAAGGACAGTGCC; listed as DNA, chemistry not fully specified) [compound 323768]",59%
15,"323725 (antisense TTTGTGGTCCAGCAGCGGTA; listed as DNA, chemistry not fully specified) [compound 323725]",67%
16,"323712 (antisense TCTCAATCCTGATGGCCCCC; listed as DNA, chemistry not fully specified) [compound 323712]",56%
17,"323723 (antisense AGCAGCGGTAGTTGTACTCA; listed as DNA, chemistry not fully specified) [compound 323723]",70%
18,"175325 (antisense AAGGTCACAGCCGAGGCGAG; listed as DNA, chemistry not fully specified) [compound 175325]",55%
